{"source": "paper PMC4459817", "about": "“Vasculotide reduces endothelial permeability and tumor cell extravasation in the absence of binding to or agonistic activation of Tie2” (EMBO Molecular Medicine, 2015)", "tested_on": "HT29luc metastases in YFP-SCID mice", "test": "experimental HT29luc liver/lymphatic metastasis model (IV)", "assay_type": "in vivo, human HT29luc cells in YFP-SCID mice", "conditions": "VT vs PBS; Fig3A–D; 35DPI imaging", "from_the_text": "Figure 3 Vasculotide has no effect on experimental liver metastases from a colon cancer cell line (HT29^luc), nor on experimental lung metastases from a renal cancer cell line (SN12^luc) • A–D An experiment where HT29^luc tumor cells were implanted intravenously into YFP-SCID mice. (A) Kaplan–Meier survival analysis. (B) Quantification of total metastatic burden in the liver and lymphatics, at 35 days post-implantation (DPI), from whole-body bioluminescent imaging (C). (D) Photograph of typical liver metastases. • E–G An experiment where SN12^luc tumor cells were implanted intravenously into YFP-SCID mice. (E) Kaplan–Meier survival analysis. (F) Quantification of total metastatic burden at 50DPI, mostly within the lungs, from whole-body bioluminescent imaging (G). […]\nFor in vivo BI: Mice were injected intraperitoneally with 150mg/kg luciferin (Promega) 10 minutes prior to and anesthetized with isofluorane just before luminescent pseudocolor imaging (uniform settings: CCD camera locked at -105 °C, exposure=60s, f/1, subject size=1.5cm, bin=8, FOV=23.2cm, full image correction) using the IVIS 200 Imaging System (Caliper/PerkinElmer). Using the Living Image software (v2.50.1, Xenogen), weekly images were analyzed under uniform color range on grayscale photographic overlay. […]", "data": [{"sequence": "CHHHRHSF [Vasculotide, 4-armed maleimide-functionalized polyethylene glycol (PEG) backbone to link together four cysteine-capped T7 peptides, that is, CHHHRHSF]", "values": [{"measurement": "survival, metastatic burden (IVBI) and liver-specific metastases", "result": "No significant differences"}]}]}
